Results published in paper PMC8869358, “High-Throughput Chemical Screening and Structure-Based Models to Predict hERG Inhibition” (Biology, 2022).
Where a name gives a salt, the structure may show the parent alone.

These compounds were tested against hERG (Homo sapiens, UniProt Q12809) (assay: cell-based). Conditions: (-LOG10(IC50), µM).
hERG, sequence (Q12809 whole entry): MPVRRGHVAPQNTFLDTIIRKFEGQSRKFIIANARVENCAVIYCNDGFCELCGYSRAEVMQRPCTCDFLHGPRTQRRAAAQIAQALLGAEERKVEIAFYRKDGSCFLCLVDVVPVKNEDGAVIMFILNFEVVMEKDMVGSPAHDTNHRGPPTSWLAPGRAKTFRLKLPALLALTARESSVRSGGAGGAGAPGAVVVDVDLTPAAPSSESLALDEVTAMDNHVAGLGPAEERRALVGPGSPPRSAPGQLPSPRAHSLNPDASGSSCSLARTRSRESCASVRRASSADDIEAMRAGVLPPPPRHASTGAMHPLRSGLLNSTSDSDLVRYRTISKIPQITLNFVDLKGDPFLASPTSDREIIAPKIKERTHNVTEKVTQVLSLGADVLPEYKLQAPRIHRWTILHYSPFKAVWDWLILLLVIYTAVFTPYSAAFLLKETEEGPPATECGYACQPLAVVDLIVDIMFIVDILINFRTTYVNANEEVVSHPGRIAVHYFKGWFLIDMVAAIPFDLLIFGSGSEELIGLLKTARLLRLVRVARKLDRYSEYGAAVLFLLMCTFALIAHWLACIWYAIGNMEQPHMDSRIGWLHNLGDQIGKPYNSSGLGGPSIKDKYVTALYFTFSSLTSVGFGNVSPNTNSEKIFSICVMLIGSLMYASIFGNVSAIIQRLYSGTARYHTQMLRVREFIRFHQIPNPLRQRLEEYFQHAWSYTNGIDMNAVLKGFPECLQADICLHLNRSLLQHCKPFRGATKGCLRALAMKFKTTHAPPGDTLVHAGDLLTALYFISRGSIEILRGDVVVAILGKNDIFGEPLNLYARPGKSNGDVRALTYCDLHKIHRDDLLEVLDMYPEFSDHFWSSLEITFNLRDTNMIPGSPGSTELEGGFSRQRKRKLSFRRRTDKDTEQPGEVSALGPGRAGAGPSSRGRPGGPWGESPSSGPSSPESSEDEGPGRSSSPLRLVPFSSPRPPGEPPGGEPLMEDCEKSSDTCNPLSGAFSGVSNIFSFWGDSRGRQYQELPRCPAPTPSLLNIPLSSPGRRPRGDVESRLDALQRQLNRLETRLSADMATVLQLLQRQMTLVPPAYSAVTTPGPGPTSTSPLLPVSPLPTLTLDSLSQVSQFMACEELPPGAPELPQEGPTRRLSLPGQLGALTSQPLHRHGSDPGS

| SMILES | IC50 [µM] |
| --- | --- |
| O=P(Oc1ccccc1)(Oc1ccccc1)Oc1ccccc1 [triphenyl phosphate] | 32.1 |
| Nc1ccc(Cl)cc1C(=O)c1ccccc1 [2-Amino-5-chlorobenzophenone] | 50.9 |
| c1ccc2c(c1)CCc1ccccc1N2 [10,11-Dihydro-5H-dibenz[b,f]azepine] | 19.7 |
| CCCC[C@H]1CN(CC2CCOCC2)C(=O)OC12CCN(C1(C)CCN(C(=O)c3c(C)ncnc3C)CC1)CC2 [PharmaGSID_48521] | 13.6 |
| Cc1c(Cl)c(=O)oc2cc(OP(=O)(OCCCl)OCCCl)ccc12 [Haloxon] | 22.1 |
| CCCCC/C=C\C/C=C\CCCCCCCC(=O)NC(C)c1ccccc1 (stereo not shown) [Melinamide] | 21.3 |
| CCN(CC)CCOc1ccc(Cc2ccccc2)cc1 [Tesmilifene] | 8.82 |
| c1ccc(Sc2ccccc2)cc1 [Diphenyl sulfide] | 43.6 |
| CC(CCc1ccc(O)cc1)NCCc1ccc(O)c(O)c1 (racemic) [DL-Dobutamine] | 16.9 |
| CCOC(=O)COC(=O)c1cc(Oc2ccc(C(F)(F)F)cc2Cl)ccc1[N+](=O)[O-] [Fluoroglycofen-ethyl] | 13.8 |
| CCCCCCCCCCCCCCn1cc[n+](C)c1 [1-Methyl-3-tetradecylimidazolium chloride] | 8.62 |
| Cc1ccc(Cl)c(OCC(O)CNC(C)(C)C)c1 (stereo not shown) [Bupranolol] | 20.1 |
| CN1C(=O)[C@@H](NC(=O)c2cc3ccccc3[nH]2)N=C(c2ccccc2)c2ccccc21 [Devazepide] | 9.52 |
| Cl[C@H]1[C@H](Cl)[C@@H](Cl)[C@H](Cl)[C@@H](Cl)[C@H]1Cl [delta-Hexachlorocyclohexane] | 51.9 |
| CCCN(CCOc1c(Cl)cc(Cl)cc1Cl)C(=O)n1ccnc1 [Prochloraz] | 20.3 |
| CCCCCCOC(=O)NC(=N)c1ccc(NCc2nc3cc(C(=O)N(CCC(=O)OCC)c4ccccn4)ccc3n2C)cc1 [Dabigatran etexilate] | 0.515 |
| CCCCC(CC)COCCCN (stereo not shown) [3-((2-Ethylhexyl)oxy)propylamine] | 35.6 |
| CC(=O)c1cc2c(cc1C)C(C)(C)C(C)CC2(C)C (stereo not shown) [Tonalide] | 20.3 |
| CC(C)C(=O)OCc1cccc(OC(=O)[C@@H]2N3C(=O)[C@@H](NC(=O)Cc4ccccc4)[C@H]3SC2(C)C)c1 [Tobicillin] | 20.5 |
| CC1C2CC(CC2C2CCCC(O)C2)C1(C)C (stereo not shown) [3-(5,5,6-Trimethylbicyclo[2.2.1]hept-2-yl)cyclohexanol] | 22.7 |
| CCCCOC(=O)CC(CC(=O)OCCCC)(OC(C)=O)C(=O)OCCCC [Acetyl tributyl citrate] | 8.99 |
| CN(C)S(=O)(=O)N(SC(F)(Cl)Cl)c1ccccc1 [Dichlofluanid] | 17.4 |

| SMILES | IC50 [µM] |
| --- | --- |
| O=C1C(Cl)=C(Cl)C(=O)c2ccccc21 [Dichlone] | 21.9 |
| C[C@@H]1CN(CCCn2c3ccccc3c3ccccc32)C[C@H](C)N1 [Rimcazole dihydrochloride] | 7.86 |
| CCCCCCOC(=O)c1ccccc1O [Hexyl salicylate] | 18.8 |
| CC[N+](CC)(CC(=O)Nc1c(C)cccc1C)Cc1ccccc1 [Denatonium saccharide] | 27.1 |
| CCCCOC(=O)COC(=O)c1ccccc1C(=O)OCCCC [Butylphthalyl butylglycolate] | 20.9 |
| CCOC(=O)O[C@H](C)OC(=O)c1ccc2c(c1)cc(C(=O)NC1CCN(C(C)C)CC1)n2Cc1cc(-c2ccc(Cl)s2)on1 [AVE6324] | 8.14 |
| NC(=O)C1(N2CCCCC2)CCN(CCCN2c3ccccc3CCc3ccc(Cl)cc32)CC1 [Clocapramine] | 1.45 |
| CC(C)=CCCC(C)=CCCC(C)=CCO [Farnesol] | 47.1 |
| Cc1ccsc1/C=C/C1=NCCCN1C [Morantel tartrate] | 19.7 |
| C[C@@H](C1=C(CCN(C)C)Cc2ccccc21)c1ccccn1 [(S)-(+)-Dimethindene maleate] | 13.4 |
| CCC(COC(=O)c1cc(OC)c(OC)c(OC)c1)(c1ccccc1)N(C)C (stereo not shown) [Trimebutine maleate] | 16.9 |
| ClC1=C(Cl)C2(Cl)C3C(Cl)C=CC3C1(Cl)C2(Cl)Cl (stereo not shown) [Heptachlor] | 31 |
| CC(C)Cc1ccc(C(C)C(=O)OCc2ccccn2)cc1 (stereo not shown) [Ibuprofen piconol] | 16.3 |
| CCCOC/C(=N\c1ccc(Cl)cc1C(F)(F)F)n1ccnc1 [Triflumizole] | 36 |
| CCCN(CCC)C(=O)C(CCC(=O)OCCCN1CCN(CCOC(=O)Cc2c(C)n(C(=O)c3ccc(Cl)cc3)c3ccc(OC)cc23)CC1)NC(=O)c1ccccc1 (stereo not shown) [Proglumetacin] | 0.365 |
| CN1CCc2cc(Cl)c(O)cc2[C@H]2c3ccccc3CC[C@@H]21 [Ecopipam] | 10.3 |
| CC(CC1c2ccccc2CCc2ccccc21)CN(C)C (stereo not shown) [Butriptyline] | 16.9 |
| CN1CCC(N(Cc2ccccc2)c2ccccc2)CC1 [Bamipine] | 3.94 |
| Fc1ccc(Oc2ccnc3cc(Cl)cc(Cl)c23)cc1 [Quinoxyfen] | 22.7 |
| O=C1NCN(c2ccccc2)C12CCN(CCCOc1ccc(F)cc1)CC2 [AMI-193] | 0.786 |
| O[C@@H](CNC[C@H](O)[C@H]1CCc2cc(F)ccc2O1)[C@@H]1CCc2cc(F)ccc2O1 (racemic) [rac Nebivolol hydrochloride] | 2.49 |
| CN1CCCN=C1COC(=O)C(O)(c1ccccc1)C1CCCCC1 (stereo not shown) [Oxyphencyclimine hydrochloride] | 5.15 |

| SMILES | IC50 [µM] |
| --- | --- |
| CC(C)(C)c1cccc(C(C)(C)C)c1O [2,6-Di-tert-butylphenol] | 19.8 |
| O=C1CCCCCCCCCCCCCC1 [Cyclopentadecanone] | 24.5 |
| CC(=O)C1(C)CC2=C(CCCC2(C)C)CC1C (stereo not shown) [Isocyclemone E] | 40 |
| CC1CCCCN1CCCOC(=O)c1ccc(OC2CCCCC2)cc1 (stereo not shown) [Cyclomethycaine] | 2.68 |
| CC(C)CCOC(=O)C=Cc1ccccc1 [Isoamyl cinnamate] | 39.1 |
| N#Cc1sc2c(=O)c3ccccc3c(=O)c=2sc1C#N [Dithianon] | 30.9 |
| CN1[C@@H]2CC[C@H]1C[C@@H](OC(=O)c1cc(Cl)cc(Cl)c1)C2 [Bemesetron] | 6.01 |
| C=CC(=O)OCC(CO)(COCC(COC(=O)C=C)(COC(=O)C=C)COC(=O)C=C)COC(=O)C=C [Dipentaerythritol pentaacrylate] | 8.28 |
| CCOc1ccccc1OCCN[C@H](C)Cc1ccc(OC)c(S(N)(=O)=O)c1 [Tamsulosin hydrochloride] | 19.7 |
| CCN(CC)CCCN(c1ccccc1)C1Cc2ccccc2C1 [Aprindine hydrochloride] | 2.79 |
| CCCCCCCC[n+]1ccn(C)c1 [1-Methyl-3-octylimidazolium trifluoromethanesulfonate] | 21.2 |
| CC(C)C1CCC(Cc2ccc(Cl)cc2)C1(O)Cn1cncn1 (stereo not shown) [Ipconazole] | 34.3 |
| O=C(CCC1CCN(Cc2ccccc2)CC1)c1ccc2c(c1)NCCCC2 [Zanapezil fumerate] | 4.59 |
| CCCC[P+](CCCC)(CCCC)CCCC [Tetrabutylphosphonium chloride] | 23.2 |
| CCOc1cc(C(C)(C)C)ccc1C1COC(c2c(F)cccc2F)=N1 (stereo not shown) [Etoxazole] | 13.8 |
| CCN(CC)c1ccc(N)cc1 [N,N-Diethyl-p-phenylenediamine] | 35.6 |
| CN(C)C(=O)NC1(c2ccccc2)CCN(CC[C@@]2(c3ccc(F)c(F)c3)CN(C(=O)c3ccccc3)CCO2)CC1 [SR144190] | 20.3 |
| O=C(c1ccccc1)c1cc(Cl)ccc1O [(5-Chloro-2-hydroxyphenyl)phenylmethanone] | 46.5 |
| O=C1OC(CCN2CCCCC2)OC1(c1ccccc1)c1ccccc1 (stereo not shown) [Pipoxolan hydrochloride] | 1.25 |
| O=[N+]([O-])c1ccc(Oc2ccc(Cl)cc2Cl)cc1 [Nitrofen] | 18.9 |
| O=C(N[C@@H]1N=C(c2ccccc2F)c2cccc3c2N(CC3)C1=O)c1cc2ccccc2[nH]1 [N-[(3R)-1-(2-Fluorophenyl)-4-oxo-3,4,6,7-tetrahydro[1,4]diazepino[6,7,1-hi]indol-3-yl]-1H-indole-2-carboxamide] | 8.82 |
| CNC(=O)c1cc(Oc2ccc(NC(=O)Nc3ccc(Cl)c(C(F)(F)F)c3)cc2)ccn1 [Sorafenib tosylate] | 22.1 |

| SMILES | IC50 [µM] |
| --- | --- |
| O=S(=O)(c1ccc(Cl)cc1)c1ccc(Cl)cc1 [4,4'-Dichlorodiphenyl sulfone] | 49.7 |
| C=CC(C)(O)CCC=C(C)CCC=C(C)C (stereo not shown) [Nerolidol] | 47.1 |
| Clc1ccc(CCC(Cn2ccnc2)Sc2c(Cl)cccc2Cl)cc1 (stereo not shown) [Butoconazole nitrate] | 5.35 |
| CCc1oc2ccccc2c1C(=O)c1cc(Br)c(O)c(Br)c1 [Benzbromarone] | 10.7 |
| CCOC(=O)C1=NOC(c2ccccc2)(c2ccccc2)C1 [Ethyl 5,5-diphenyl-2-isoxazoline-3-carboxylate] | 36.7 |
| COc1cc(N)c(Cl)cc1C(=O)NC1CCN(Cc2ccccc2)CC1 [Clebopride maleate] | 15.7 |
| N#CCCC(Br)(C#N)CBr (stereo not shown) [1,2-Dibromo-2,4-dicyanobutane] | 36.7 |
| BrCC(Br)C1CCC(Br)C(Br)C1 (stereo not shown) [1,2-Dibromo-4-(1,2-dibromoethyl)cyclohexane] | 34.5 |
| COc1cc(C(=O)OCCCN2CCCN(CCCOC(=O)c3cc(OC)c(OC)c(OC)c3)CC2)cc(OC)c1OC [Dilazep] | 6.01 |
| CCCCOCCOC(=O)COc1nc(Cl)c(Cl)cc1Cl [Triclopyr butotyl] | 34.7 |
| CCOP(=S)(Oc1ccc([N+](=O)[O-])cc1)c1ccccc1 (stereo not shown) [EPN] | 0.776 |
| CC[C@@H]([C@H](C)O)n1ncn(-c2ccc(N3CCN(c4ccc(OC[C@@H]5CO[C@@](Cn6cncn6)(c6ccc(F)cc6F)C5)cc4)CC3)cc2)c1=O [Posaconazole] | 12.9 |
| NNc1nc(-c2ccc([N+](=O)[O-])cc2)cs1 [2-Hydrazino-4-(4-nitrophenyl)thiazole] | 23.6 |
| C#CCOC(=O)[C@@H](C)Oc1ccc(Oc2ncc(Cl)cc2F)cc1 [Clodinafop-propargyl] | 41 |
| OC(C#CCN1CCCC1)(c1ccccc1)c1ccccc1 [Butinoline] | 19 |
| COc1ccccc1N1CCN(CCCCNC(=O)c2ccc(-c3ccc(C(C)=O)cc3)cc2)CC1 [GR 103691] | 3.01 |
| CC=O [Acetaldehyde] | 5.33 |
| CCOC(=O)NNc1ccc(N(CC)CC(C)O)nn1 (stereo not shown) [Cadralazine] | 23.9 |
| CCCCCCCCCCCCCC[N+](C)(C)C [Myristyltrimethylammonium chloride] | 15 |
